How the values were obtained:
γ(40)-secretase activity = target: T1, γ(40)-secretase activity (Homo sapiens, UniProt P49768); experiment: Exogenous substrate γ-secretase assay, Aβ(40) generation from C100Flag; format: biochemical; settings: SH-SY5Y membranes, recombinant C100Flag substrate, 0.5% CHAPSO
T1 construct: utilizing SH-SY5Y membranes as source of γ-secretase enzyme; endogenous in cells; host or cells: human SH-SY5Y neuroblastoma cell membranes (0.5% CHAPSO)
Procedure: (§1) Exogenous substrate γ-secretase assays—For determination of the potencies of Merck A and B, membranes from SH-SY5Y membranes stored in PBS, 5% glycerol were collected by centrifugation for 30 min at 180,000 g. For in vitro generation of Aβ peptides, 80 μg of membranes were incubated with 7.5 μg of recombinant C100Flag (Li et al., 2000a) in 20 mM HEPES, pH 7.3, 2 mM EDTA, 0.1% bovine serum albumin, 0.5% CHAPSO in 100 μl final volume similar to described methods (Li et al., 2000a) in the presence of increasing compound concentrations. Aβ peptides were quantified by an electrochemiluminescence assay in a 96-well plate format [Origen M-Series™ analyzer, Igen] as described (Beher et al., 2001) using 35 μl of the reaction for Aβ(40) and 50 μl for Aβ(42) detection. Non-specific background was defined by the signal obtained when the assay was performed in the presence of 10 μM of Merck A. For determination of γ-secretase activity in the sucrose gradient fractions, 20 μl of each fraction were incubated with 10 μg of recombinant C100Flag and processed further as above.
(§2) FIG. 1. γ-Secretase inhibitors synthesized for this study and their potencies for inhibition of γ(40)- and γ(42)-secretase activities. […] The reduction of Aβ generation was measured relative to Me2SO-treated controls and error bars indicate the standard error the mean from triplicate experiments.

γ(42)-secretase activity = target: T2, γ(42)-secretase activity (Homo sapiens, UniProt P49768); experiment: Exogenous substrate γ-secretase assay, Aβ(42) generation from C100Flag; format: biochemical; settings: SH-SY5Y membranes, recombinant C100Flag substrate, 0.5% CHAPSO
T2 construct: utilizing SH-SY5Y membranes as source of γ-secretase enzyme; endogenous in cells; host or cells: human SH-SY5Y neuroblastoma cell membranes (0.5% CHAPSO)
Procedure: as §1, §2

[1] = target: T3, γ-secretase complex (PS1 heterodimer and nicastrin) (Homo sapiens, UniProt P49768); experiment: Inhibitor affinity precipitation of CHAPSO-solubilized γ-secretase with biotinylated Merck C, Western blot; format: binding; settings: test compound 200 μM, Merck C 0.1 μM, 2.5 mg beads
T3 construct: mainly occurs as a heterodimer of its N- and C-terminal fragment; endogenous in cells; host or cells: human SH-SY5Y neuroblastoma cell membranes, solubilised in 1% CHAPSO and diluted to 0.5%
Procedure: Western blot analyses—Equal amounts of protein were separated by SDS-polyacrylamide gel electrophoresis and transferred to nitrocellulose membranes. Probing of the membranes was carried out with various antibodies, as indicated in the figures, using the enhanced-chemiluminescence system (ECL, Amersham). Quantitation of bands using a computerized image analysis system (MCID, Imaging Research Inc.) was performed as described previously (Beher et al., 1999).
CHAPSO-solubilization of active γ-secretase and inhibitor affinity precipitations—SH-SY5Y membranes stored in PBS, 5% glycerol were collected by centrifugation for 30 min at 180,000 g. Membrane proteins were solubilized in 1% (w/v) CHAPSO, 50 mM MES-NaOH, pH 6.0, 0.15 M NaCl, 5 mM MgCl2, 1×EDTA-free protease inhibitor mixture (Roche Molecular Biochemicals). Insoluble debris was removed by centrifugation at 180,000 g for 30 min and the resulting supernatant (solubilized γ-secretase) adjusted with the same buffer without CHAPSO to give a final detergent concentration of 0.5% CHAPSO (w/v). Endogenous biotinylated proteins were removed by adding streptavidin-coupled magnetic beads and centrifugation for 2 min at 20,000 g after an incubation for 30 min at 4° C. […]

[2] = system: Aβ42, Aβ38 and Aβ40 production; settings: cited from earlier work

Row | IC50 for inhibition of γ(40)-secretase activity (in vitro generation of Aβ(40)) (γ(40)-secretase activity) | IC50 for inhibition of γ(42)-secretase activity (in vitro generation of Aβ(42)) (γ(42)-secretase activity) | Effect on capture efficiency for PS1 heterodimer and mature nicastrin by Merck C [1] | Compound | Effect on production of Aβ42 [2] | Effect on production of Aβ38 [2] | Effect on production of Aβ40 [2]
1 | low nanomolar range | low nanomolar range |  | CC(C)CC(NC(=O)C(Cc1ccccc1)CC(O)C(Cc1ccccc1)NC(=O)OC(C)(C)C)C(=O)NC(Cc1ccccc1)C(N)=O (stereo not shown) [Merck A] |  |  | 
2 |  |  | comparable to the DMSO (Me2O) control | CC1=C(CC(=O)O)c2cc(F)ccc2/C1=C\c1ccc(S(C)(=O)=O)cc1 [sulindac sulfone] | does not lower |  | 
3 |  |  |  | COc1ccc2c(c1)c(CC(=O)O)c(C)n2C(=O)c1ccc(Cl)cc1 [indomethacin] | inhibit | increasing | constant
4 | low nanomolar range | low nanomolar range |  | CC(C)CC(NC(=O)C(Cc1ccccc1)CC(O)C(Cc1ccccc1)NC(=O)OC(C)(C)C)C(=O)NC(Cc1ccccc1)C(=O)NCCCCCNC(=O)CCCCCNC(=O)CCCCCNC(=O)CCCCCN (stereo not shown) [Merck B] |  |  | 
5 |  |  |  | CC(C)Cc1ccc(C(C)C(=O)O)cc1 (stereo not shown) [ibuprofen] | inhibit | increasing | constant
6 |  |  | enhanced | CSc1ccc(/C=C2/C(C)=C(CC(=O)O)c3cc(F)ccc32)cc1 [sulindac sulphide] | inhibit | increasing | constant

Source: US7285393B2, “Assay for modulation of γ secretase” (Merck Sharp & Dohme Limited, priority 2002, dated 2007)
